Some test systems named below: TK-10 renal; OVCAR-5 ovarian; M14 melanoma; ACHN renal; SF-268 CNS; A498 renal; SNB-75 CNS; HOP-92 NSCLC; HCT-15 colon; NCI-H226 lung; SR leukemia; 786-0 renal; CAKI-1 renal; RXF 393 renal; NCI/ADR-RES ovarian; DU-145 prostate; MDA-MB-435; PC-3 prostate.
Holding throughout (assay): growth of human tumour cells (NCI), 48 h

The record followed here is PubChem BioAssay (NCI).

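Cells were grown in 96-well plates and exposed to each compound for 48 hours at five concentrations; endpoints were interpolated linearly between bracketing concentrations, or set to the highest concentration if not reached. TGI marks complete inhibition of growth.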

For `COc1cc(OC)c2c(c1)C(=O)C(CC(C)O)=CC2=O` (stereo unspecified), the TGI in the test with TK-10 renal worked out at 34.1 µM; in the test on OVCAR-5 ovarian, 32.3 µM; in the test with M14 melanoma it was 32.9 µM; in the test on ACHN renal it was 30.2 µM; in the test with SF-268 CNS, 33 µM; in the test on A498 renal it was 31.7 µM. Besides, the TGI with SNB-75 CNS is 41 µM; in the test with HOP-92 NSCLC, 23.3 µM; in the test with HCT-15 colon, 27.7 µM; in the test with NCI-H226 lung, 35.4 µM; in the test on SR leukemia, 7.44 µM; in the test with 786-0 renal, 29.9 µM. The TGI is 34.3 µM in the test with CAKI-1 renal and 25.3 µM in the test with RXF 393 renal.
With `CCN(CC)CCCNc1nc(=O)[nH]c(C)c1C(=O)Nc1cccc2cc3ccccc3cc12`, the TGI with TK-10 renal, in the test on NCI/ADR-RES ovarian, in the test with OVCAR-5 ovarian, in the test on M14 melanoma, in the test on ACHN renal and in the test on DU-145 prostate was over 100 µM in each case. Moreover, the TGI with MDA-MB-435, in the test with SNB-75 CNS, in the test on HOP-92 NSCLC, with HCT-15 colon, with PC-3 prostate and with NCI-H226 lung was over 100 µM each time. The TGI in the test with 786-0 renal, in the test with CAKI-1 renal and in the test on RXF 393 renal was over 100 µM each time.
`CC1SC2=NC3=C(c4ccccc4C3=O)C(c3ccc(F)cc3)N2C1=O` (stereo unspecified): the TGI in the test with TK-10 renal, with OVCAR-5 ovarian, with M14 melanoma, with ACHN renal, in the test on SF-268 CNS and with A498 renal was over 100 µM in each case. The TGI with SNB-75 CNS, with HOP-92 NSCLC, with HCT-15 colon, in the test with NCI-H226 lung, in the test on 786-0 renal and with CAKI-1 renal was over 100 µM throughout.
On to `Cn1cnc(CCc2ccccc2)n1`, for which the TGI in the test with TK-10 renal, with OVCAR-5 ovarian, in the test with M14 melanoma, with ACHN renal, with SF-268 CNS and in the test on A498 renal was over 100 µM each time. Besides, the TGI in the test on SNB-75 CNS, with HOP-92 NSCLC, in the test on HCT-15 colon, in the test with NCI-H226 lung, with SR leukemia and in the test on 786-0 renal was over 100 µM throughout. For the same compound, the TGI in the test on CAKI-1 renal and in the test with RXF 393 renal was over 100 µM in each case.
With `N#CCc1nc2ccccc2c(=O)[nH]1`, the TGI in the test on TK-10 renal, in the test with NCI/ADR-RES ovarian, in the test on OVCAR-5 ovarian, in the test with M14 melanoma, in the test with ACHN renal and in the test on DU-145 prostate was over 100 µM each time. Besides, the TGI in the test with MDA-MB-435, in the test with SNB-75 CNS, in the test on HOP-92 NSCLC, in the test on HCT-15 colon, in the test with PC-3 prostate and with NCI-H226 lung was over 100 µM each time. In addition, the TGI in the test on 786-0 renal and in the test on CAKI-1 renal was over 100 µM in each case.
Turning to `Cc1[nH]ccc2c1[nH]c1cc(=O)ccc12`, the TGI in the test with TK-10 renal, in the test with OVCAR-5 ovarian, in the test with M14 melanoma, in the test with ACHN renal, in the test with SF-268 CNS and with A498 renal was over 100 µM each time. Moreover, the TGI in the test with SNB-75 CNS, in the test on HOP-92 NSCLC, in the test on HCT-15 colon, in the test on NCI-H226 lung, in the test on 786-0 renal and in the test with CAKI-1 renal was over 100 µM each time. Also, the TGI with RXF 393 renal was over 100 µM.
`CC(=O)OCC1OC(OC2C(CSC3OC(COC(C)=O)C(OC(C)=O)C(OC(C)=O)C3OC(C)=O)OC(OC(C)=O)C(OC(C)=O)C2OC(C)=O)C(OC(C)=O)C(OC(C)=O)C1OC(C)=O` (stereo unspecified): the TGI in the test on TK-10 renal, with OVCAR-5 ovarian, in the test on M14 melanoma, with ACHN renal, in the test with SF-268 CNS and in the test with SNB-75 CNS was over 100 µM each time. In addition, the TGI in the test on HOP-92 NSCLC, in the test on HCT-15 colon, with NCI-H226 lung, in the test with SR leukemia, with 786-0 renal and with CAKI-1 renal was over 100 µM throughout.
Regarding `COc1cc(Cn2c3ccccc3c3cc(C)c4c(c32)C=CC(C)(CCC=C(C)C)O4)cc2c1[nH]c1ccccc12` (stereo unspecified), the TGI in the test with TK-10 renal, in the test with OVCAR-5 ovarian, in the test on M14 melanoma, in the test with ACHN renal, in the test with SF-268 CNS and with A498 renal was over 100 µM each time. The TGI with SNB-75 CNS, in the test on HOP-92 NSCLC, in the test on HCT-15 colon, in the test on SR leukemia, in the test on 786-0 renal and in the test with CAKI-1 renal was over 100 µM in each case. In the test on RXF 393 renal, this compound gave a TGI of over 100 µM.
Regarding `C[C@H](OCc1ccccc1)C(=O)N1CCS(=O)(=O)N2CCC[C@H]2C1=O`, the TGI in the test with TK-10 renal, in the test with OVCAR-5 ovarian, in the test with M14 melanoma, in the test on ACHN renal, in the test on SF-268 CNS and in the test on A498 renal was over 100 µM throughout. The TGI with SNB-75 CNS, in the test with HOP-92 NSCLC, in the test with HCT-15 colon, in the test on NCI-H226 lung, with SR leukemia and with 786-0 renal was over 100 µM each time. Besides, the TGI in the test on CAKI-1 renal and with RXF 393 renal was over 100 µM throughout.
`CC1=C(C(=O)O)N2C(=O)[C@@H](NC(=O)C(c3ccc(O)cc3)N3CSC(=S)N(C(C)C)C3)C2SC1` (stereo partly specified): the TGI in the test on TK-10 renal, in the test with OVCAR-5 ovarian, in the test on M14 melanoma, in the test with ACHN renal, in the test with SF-268 CNS and in the test on A498 renal was over 100 µM each time. The TGI in the test with SNB-75 CNS, with HOP-92 NSCLC, with HCT-15 colon and with 786-0 renal was over 100 µM in each case.
